# According to PMC10706121, “Bioactive Polyketides from the Natural Complex of the Sea Urchin-Associated Fungi Penicillium sajarovii KMM 4718 and Aspergillus protuberus KMM 4747” (International Journal of Molecular Sciences, 2023):
# “Also recorded” adds a separate entry of the source.
# Target: T1, urease from Canavalia ensiformis (Canavalia ensiformis, UniProt P07374)
# T1 construct: purchased Sigma
# Experiment: Urease inhibition assay (indophenol method, cell-free)
# Type: biochemical
# Conditions: not given
# Description: A reaction mixture consisting of 25 µL of enzyme solution (urease from Canavalia ensiformis, Sigma, 1U final concentration) and 5 µL of test compounds dissolved in water (10–300.0 µM final concentration) was preincubated at 37 °C for 60 min in 96-well plates. Then, 55 µL of phosphate-buffered solution with […] of urea was added to each well and incubated at 37 °C for 10 min. The urease inhibitory activity was estimated by determining ammonia production using the indophenol method. Briefly, 45 µL of phenol reagent (1% w/v phenol and 0.005% w/v sodium nitroprusside) and 70 µL of alkali reagent (0.5% w/v NaOH and 0.1% active chloride NaClO) were added to each well. The absorbance was measured after 50 min at 630 nm using a MultiskanFS microplate reader (Thermo Scientific Inc., Beverly, MA, USA). All reactions were performed in triplicate in a final volume of 200 µL. The pH was maintained at 7.3–7.5 in all assays. DMSO 5% was used as a positive control.
# T1 sequence (P07374 whole entry, looked up): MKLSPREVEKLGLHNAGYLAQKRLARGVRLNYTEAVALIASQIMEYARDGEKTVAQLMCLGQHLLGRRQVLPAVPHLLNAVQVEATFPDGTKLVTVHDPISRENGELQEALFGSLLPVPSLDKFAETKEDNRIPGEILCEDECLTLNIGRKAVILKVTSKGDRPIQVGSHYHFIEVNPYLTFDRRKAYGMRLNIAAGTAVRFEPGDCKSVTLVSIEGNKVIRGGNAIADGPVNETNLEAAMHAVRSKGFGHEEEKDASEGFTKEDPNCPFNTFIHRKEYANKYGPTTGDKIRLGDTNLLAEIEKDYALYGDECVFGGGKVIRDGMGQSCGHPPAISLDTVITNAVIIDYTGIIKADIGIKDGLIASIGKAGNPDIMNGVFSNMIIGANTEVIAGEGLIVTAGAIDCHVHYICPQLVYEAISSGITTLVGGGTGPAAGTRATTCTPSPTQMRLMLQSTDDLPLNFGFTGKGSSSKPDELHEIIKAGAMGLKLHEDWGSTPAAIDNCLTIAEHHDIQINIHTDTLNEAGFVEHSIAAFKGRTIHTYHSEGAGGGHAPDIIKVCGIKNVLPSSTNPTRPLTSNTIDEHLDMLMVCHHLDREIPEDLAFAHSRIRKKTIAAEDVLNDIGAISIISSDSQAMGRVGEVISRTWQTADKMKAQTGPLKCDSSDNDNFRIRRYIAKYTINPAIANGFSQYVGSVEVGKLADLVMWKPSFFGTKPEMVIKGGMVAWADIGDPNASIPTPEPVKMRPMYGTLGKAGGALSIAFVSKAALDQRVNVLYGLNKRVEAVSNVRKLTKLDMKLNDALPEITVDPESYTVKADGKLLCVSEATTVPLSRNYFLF
row,Compound,IC50 [µM]
1,"COC1=CC(=O)C[C@@H](C)[C@]12Oc1c(Cl)c(O)cc(OC)c1C2=O [Compound 9, 6-O-desmethylgriseofulvin]",> 100
2,"CC1=CC(=O)OCC1 [Compound 11, 5,6-dihydro-4-methyl-2H-pyran-2-one]",11.4 ± 1

# Same assay, conditions: at concentrations of up to 100 µM
row,Compound,effect on urease activity
1,"COC1=CC(=O)C[C@@H](C)[C@]12Oc1c(Cl)c(O)cc(OC)c1C2=O [Compound 9, 6-O-desmethylgriseofulvin]",no effect; also recorded: did not show any effect

# Tested on: S. aureus-infected H9c2 cardiomyocytes
# Experiment: Staphylococcus aureus-induced infection of H9c2 cardiomyocytes (in vitro model of infectious myocarditis, MTT)
# Type: cell-based, rat
# Conditions: 1 and 10 µM
# Description: The H9c2 cells were seeded at concentrations of 3 × 10^3 cell/well. After 24 h, the cell culture media was changed with an S. aureus bacterial suspension (10^2 CFU/mL) prepared in full DMEM culture media. The investigated compounds at concentrations of 1 and 10 µM were added after 1 h and the cells were incubated for 48 h. The S. aureus suspension with compounds at the same concentrations was used as a control. MTT reagent was added to all wells and formazan production was detected with the microplate reader MultiscanFC (ThermoLabsystems Inc., Beverly, MA, USA). The viability of S. aureus-infected cells was calculated as:Viability, relative units = (OD cells+Sa +comp − OD Sa+comp)/(OD cells+Sa − OD Sa)
row,Compound,effect on the viability of S. aureus-infected H9c2 cardiomyocytes
1,"CC1=CC(=O)OCC1 [Compound 11, 5,6-dihydro-4-methyl-2H-pyran-2-one]",did not show any statistical effect

# Tested on: Candida albicans KMM 455
# Experiment: Antimicrobial activity, inhibition of microbial growth (OD620)
# Type: cell-based
# Conditions: Candida albicans, KMM455, read-out: Inhibition of Microbial Growth, C. albicans
# Description: (§1) The yeast-like fungi of Candida albicans KMM 455 and bacterial strains Staphylococcus aureus ATCC 21027 and Escherichia coli VKPM (B-7935) (Collection of Marine Microorganisms PIBOC FEB RAS) were cultured on solid-medium Mueller Hinton broth with agar (16.0 g/L) in a Petri dish at 37 °C for 24 h.
# (§2) The assays were performed in 96-well microplates in appropriate Mueller Hinton broth. Each well contained 90 µL of bacterial or of a yeast-like fungi suspension (10^9 CFU/mL). Then, 10 µL of a compound diluted at concentrations ranging from 1.5 to 100.0 µM using a 2-fold dilution was added (DMSO concentration < 1%). Culture plates were incubated overnight at 37 °C, and the OD620 was measured using a Multiskan FS spectrophotometer (Thermo Scientific Inc., Beverly, MA, USA). The antibiotic gentamicin and antifungal agent nitrofungin were used as positive controls at 1 mg/mL; 1% DMSO in PBS served as a negative control.
row,Compound,inhibition at 100 µM [%]
1,"CC1=CC(=O)OCC1 [Compound 11, 5,6-dihydro-4-methyl-2H-pyran-2-one]",< 10

# Same assay, conditions: Candida albicans, KMM455; compounds tested at 100 µM; read-out: Inhibition of Microbial Growth, C. albicans
row,Compound,inhibition at 100 µM [%]
1,"COC1=CC(=O)C[C@@H](C)[C@]12Oc1c(Cl)c(O)cc(OC)c1C2=O [Compound 9, 6-O-desmethylgriseofulvin]",< 10

# Same assay, conditions: compounds tested at 100 µM
row,Compound,"Inhibition of Microbial Growth, C. albicans"
1,"CC1=CC(=O)OCC1 [Compound 11, 5,6-dihydro-4-methyl-2H-pyran-2-one]",did not affect

# Tested on: Escherichia coli VKPM (B-7935)
# Experiment: as above
# Type: cell-based
# Conditions: Escherichia coli, compounds tested at 100 µM; read-out: Inhibition of Microbial Growth, E. coli
# Description: as §1, §2
row,Compound,inhibition at 100 µM [%]
1,"COC1=CC(=O)C[C@@H](C)[C@]12Oc1c(Cl)c(O)cc(OC)c1C2=O [Compound 9, 6-O-desmethylgriseofulvin]",~23

# Same assay, conditions: Escherichia coli, read-out: Inhibition of Microbial Growth, E. coli
row,Compound,inhibition at 100 µM [%]
1,"CC1=CC(=O)OCC1 [Compound 11, 5,6-dihydro-4-methyl-2H-pyran-2-one]",< 10

# Same assay, conditions: compounds tested at 100 µM; 100 µM
row,Compound,"Inhibition of Microbial Growth, E. coli [%]"
1,"COC1=CC(=O)C[C@@H](C)[C@]12Oc1c(Cl)c(O)cc(OC)c1C2=O [Compound 9, 6-O-desmethylgriseofulvin]",23.4 ± 1.8

# Tested on: Staphylococcus aureus ATCC 21027
# Experiment: as above
# Type: cell-based
# Conditions: Staphylococcus aureus, ATCC21027, compounds tested at 100 µM; read-out: Inhibition of Microbial Growth, S. aureus
# Description: as §1, §2
row,Compound,inhibition at 100 µM [%]
1,"COC1=CC(=O)C[C@@H](C)[C@]12Oc1c(Cl)c(O)cc(OC)c1C2=O [Compound 9, 6-O-desmethylgriseofulvin]",~23

# Same assay, conditions: Staphylococcus aureus, ATCC21027, read-out: Inhibition of Microbial Growth, S. aureus
row,Compound,inhibition at 100 µM [%]
1,"CC1=CC(=O)OCC1 [Compound 11, 5,6-dihydro-4-methyl-2H-pyran-2-one]",< 10

# Tested on: human hepatocarcinoma HepG2 cells
# Experiment: Cell viability assay (MTT), cytotoxic activity
# Type: cell-based
# Conditions: 100 µM
# Description: (§3) The HepG2 and H9c2 cells were cultured in DMEM medium (Biolot, St. Petersburg, Russia) containing 10% fetal bovine serum (Biolot, St. Petersburg, Russia) and 1% penicillin/streptomycin (Biolot, St. Petersburg, Russia) at 37 °C in a humidified atmosphere with 5% (v/v) CO2.
# (§4) The HepG2 and H9c2 cells were seeded at concentrations of 5× 10^3 and 3×10^3 cell/well, respectively, and the experiments were started after 24 h. The compounds at concentrations up to 100 µM were added into the wells for 24 h, and the viability of the cells was measured by an MTT (3-(4,5-dimethylthiazol-2-yl)-2,5-diphenyltetrazolium bromide) assay, which was performed according to the manufacturer’s instructions (Sigma-Aldrich, Munich, Germany). All compounds were dissolved with DMSO so that the final concentration of DMSO in the cell culture was not more than 1%. Moreover, DMSO was used as a control. The absorbance of the resulting solution was measured at 570 nm with a microplate reader MultiscanFC (ThermoLabsystems Inc., Beverly, MA, USA). The results are presented as a percent of the control data and calculated IC50.
row,Compound,decrease of HepG2 cell viability [%]
1,"CC1=CC(=O)OCC1 [Compound 11, 5,6-dihydro-4-methyl-2H-pyran-2-one]",23.4

# Tested on: not listed separately
# Experiment: Cell viability assay (MTT), cytotoxic activity
# Type: cell-based, human
# Conditions: human, HepG2 cells (human hepatocarcinoma), 24 h, MTT; read-out: HepG2 IC50 (cytotoxic effect)
# Description: as §3, §4
row,Compound,IC50 at 24 h [µM]
1,"COC1=CC(=O)C[C@@H](C)[C@]12Oc1c(Cl)c(O)cc(OC)c1C2=O [Compound 9, 6-O-desmethylgriseofulvin]",> 100

# Same assay, conditions: human, HepG2 hepatocarcinoma cells; 10 µM, 24 h, MTT, percent of control
row,Compound,"viability at 24 h, 10 µM [%]"
1,"COC1=CC(=O)C[C@@H](C)[C@]12Oc1c(Cl)c(O)cc(OC)c1C2=O [Compound 9, 6-O-desmethylgriseofulvin]",91.5 ± 6.8

# Same assay, conditions: human, HepG2 hepatocarcinoma cells; 100 µM, 24 h, MTT, percent of control
row,Compound,"viability at 24 h, 100 µM [%]"
1,"COC1=CC(=O)C[C@@H](C)[C@]12Oc1c(Cl)c(O)cc(OC)c1C2=O [Compound 9, 6-O-desmethylgriseofulvin]",84.2 ± 3.2

# Same assay, conditions: human; 10 µM, 24 h, MTT, percent of control; read-out: HepG2 Cell Viability
row,Compound,"viability at 24 h, 10 µM [%]"
1,"CC1=CC(=O)OCC1 [Compound 11, 5,6-dihydro-4-methyl-2H-pyran-2-one]",87.5 ± 5.3

# Same assay, conditions: human; 100 µM, 24 h, MTT, percent of control; read-out: HepG2 Cell Viability
row,Compound,"viability at 24 h, 100 µM [%]"
1,"CC1=CC(=O)OCC1 [Compound 11, 5,6-dihydro-4-methyl-2H-pyran-2-one]",76.6 ± 2.4

# Same assay, conditions: human; 24 h, MTT; read-out: HepG2 IC50 (cytotoxic effect)
row,Compound,IC50 at 24 h [µM]
1,"CC1=CC(=O)OCC1 [Compound 11, 5,6-dihydro-4-methyl-2H-pyran-2-one]",> 100

# Same assay, conditions: rat, H9c2 cardiomyocyte cells; 10 µM, 24 h, MTT, percent of control
row,Compound,"viability at 24 h, 10 µM [%]"
1,"COC1=CC(=O)C[C@@H](C)[C@]12Oc1c(Cl)c(O)cc(OC)c1C2=O [Compound 9, 6-O-desmethylgriseofulvin]",97.4 ± 8.1

# Same assay, conditions: rat, H9c2 cardiomyocyte cells; 100 µM, 24 h, MTT, percent of control
row,Compound,"viability at 24 h, 100 µM [%]"
1,"COC1=CC(=O)C[C@@H](C)[C@]12Oc1c(Cl)c(O)cc(OC)c1C2=O [Compound 9, 6-O-desmethylgriseofulvin]",92.9 ± 3.7

# Same assay, conditions: rat, H9c2 cells (normal rat cardiomyocytes), 24 h, MTT; read-out: H9c2 IC50 (cytotoxic effect)
row,Compound,IC50 at 24 h [µM]
1,"COC1=CC(=O)C[C@@H](C)[C@]12Oc1c(Cl)c(O)cc(OC)c1C2=O [Compound 9, 6-O-desmethylgriseofulvin]",> 100

# Same assay, conditions: rat; 10 µM, 24 h, MTT, percent of control; read-out: H9c2 Cell Viability
row,Compound,"viability at 24 h, 10 µM [%]"
1,"CC1=CC(=O)OCC1 [Compound 11, 5,6-dihydro-4-methyl-2H-pyran-2-one]",95.9 ± 0.6

# Same assay, conditions: rat; 100 µM, 24 h, MTT, percent of control; read-out: H9c2 Cell Viability
row,Compound,"viability at 24 h, 100 µM [%]"
1,"CC1=CC(=O)OCC1 [Compound 11, 5,6-dihydro-4-methyl-2H-pyran-2-one]",89 ± 2.9

# Same assay, conditions: rat; 24 h, MTT; read-out: H9c2 IC50 (cytotoxic effect)
row,Compound,IC50 at 24 h [µM]
1,"CC1=CC(=O)OCC1 [Compound 11, 5,6-dihydro-4-methyl-2H-pyran-2-one]",> 100
